The NIST ThermoML archive (doi:10.1016/j.fluid.2007.01.038)
± gives the expanded uncertainty stated by the source.

What was measured:
[1] = Liquid; for mass density: 298.15 K, 101.33 kPa; for Normal boiling temperature: Ebulliometric method (Recirculating still)
[2] = refractive index (Na D-line) (dimensionless); conditions: 298.15 K; 101.33 kPa; Liquid; Standard Abbe refractometry

| SMILES | mass density [1] | Normal boiling temperature [1] | refractive index [2] |
| --- | --- | --- | --- |
| CCCCOC(C)(C)C [butane, 1-(1,1-dimethylethoxy)-] | 757.57 ± 0.26 kg/m3 | 122.50 ± 0.1 °C | 1.3917 ± 0.00072 |
| CCO [ethanol] | 785.22 ± 0.5 kg/m3 | 78.29 ± 0.1 °C | 1.3592 ± 0.00073 |
| CO [methanol] | 786.63 ± 0.5 kg/m3 | 64.4 ± 0.1 °C | 1.3264 ± 0.0007 |
